US20250230193A1, “CYCLIC COMPOUND HAVING SELECTIVE KRAS INHIBITORY EFFECT ON HRAS AND NRAS” (CHUGAI SEIYAKU KABUSHIKI KAISHA, priority 2022, published 2025)

Columns and labels:
[1] = biological target: GDP-bound NRAS wild-type protein (Homo sapiens, UniProt P01111); experiment: Binding to NRAS by surface plasmon resonance (SPR), Single Cycle Kinetics; settings: SPR, GDP-bound NRAS wild-type vs GDP-bound KRAS wild-type
[2] = biological target: GDP-bound HRAS wild-type protein (Homo sapiens, UniProt P01112); experiment: Binding to HRAS by surface plasmon resonance (SPR), Single Cycle Kinetics; settings: SPR, GDP-bound HRAS wild-type vs GDP-bound KRAS wild-type
GDP-bound HRAS wild-type protein, sequence (P01112 whole entry): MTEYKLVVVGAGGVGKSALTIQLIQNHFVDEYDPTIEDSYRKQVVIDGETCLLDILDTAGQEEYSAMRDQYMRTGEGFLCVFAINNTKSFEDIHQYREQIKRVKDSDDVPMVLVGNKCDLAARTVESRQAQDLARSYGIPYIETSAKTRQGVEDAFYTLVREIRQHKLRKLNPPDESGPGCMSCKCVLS

GDP-bound NRAS wild-type protein, sequence (P01111 whole entry): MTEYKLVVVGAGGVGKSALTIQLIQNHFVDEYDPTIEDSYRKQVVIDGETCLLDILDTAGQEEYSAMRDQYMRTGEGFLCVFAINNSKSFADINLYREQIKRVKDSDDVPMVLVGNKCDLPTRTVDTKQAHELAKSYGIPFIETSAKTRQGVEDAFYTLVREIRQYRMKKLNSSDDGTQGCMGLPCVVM

Q: With `CC[C@H](C)[C@@H]1NC(=O)[C@H](CC(C)C)N(C)C(=O)C[C@@H](C(=O)N(C)CC)N(C)C(=O)[C@H](C2CCCC2)N(C)C(=O)C2(CC(C)(C)C2)NC(=O)[C@@H]2C[C@H](C)CN2C(=O)[C@H](CCc2ccc(C(F)(F)F)c(OC)c2)NC(=O)CN(C)C(=O)[C@H](Cc2ccc(C)cc2)N2CC/C=C\C[C@@H](C2=O)N(C)C(=O)[C@@H]2CCCN2C1=O` [PP2410] as the molecule, how does the “NRAS/KRAS (ratio of KD value with respect to NRAS to KD value with respect to KRAS)” value [1] read?
A: A (a compound having 10 or more and less than 20 is denoted as A)

Q: And the “HRAS/KRAS (ratio of KD value with respect to HRAS to KD value with respect to KRAS)” value [2]?
A: A (a compound having 10 or more and less than 20 is denoted as A)

Q: For `CC[C@H](C)[C@@H]1NC(=O)[C@H](CC(C)C)N(C)C(=O)C[C@@H](C(=O)N(C)CC)N(C)C(=O)[C@H](C2CCCC2)N(C)C(=O)C2(CC(C)(C)C2)NC(=O)[C@@H]2C[C@H](C)CN2C(=O)[C@H](CCc2cc(F)c(C(F)(F)F)c(F)c2)NC(=O)CN(C)C(=O)[C@H](Cc2ccc(C)cc2)N2CC/C=C\C[C@@H](C2=O)N(C)C(=O)[C@@H]2CCCN2C1=O` [PP2411], which “NRAS/KRAS (ratio of KD value with respect to NRAS to KD value with respect to KRAS)” value [1] is on record?
A: A (a compound having 10 or more and less than 20 is denoted as A)

Q: And the “HRAS/KRAS (ratio of KD value with respect to HRAS to KD value with respect to KRAS)” value [2]?
A: A (a compound having 10 or more and less than 20 is denoted as A)

Q: How did the “NRAS/KRAS (ratio of KD value with respect to NRAS to KD value with respect to KRAS)” value [1] turn out when `CCO[C@H](C)[C@@H]1NC(=O)[C@H](CC(C)C)N(C)C(=O)C[C@@H](C(=O)N(C)C)N(C)C(=O)[C@H](C2CCCC2)N(C)C(=O)C2(CC(C)(C)C2)NC(=O)[C@@H]2C[C@H](C)CN2C(=O)[C@H](CCc2ccc(C(F)(F)F)c(OC)c2)NC(=O)CN(C)C(=O)[C@H](Cc2ccc(C)cc2)N2CC/C=C\C[C@@H](C2=O)N(C)C(=O)CN(C)C1=O` [PP2412] was run?
A: A (a compound having 10 or more and less than 20 is denoted as A)

Q: And the “HRAS/KRAS (ratio of KD value with respect to HRAS to KD value with respect to KRAS)” value [2]?
A: B (a compound having 3 or more and less than 10 is denoted as B)

Q: For `CCO[C@H](C)[C@@H]1NC(=O)[C@H](CC(C)C)N(C)C(=O)C[C@@H](C(=O)N(C)CC)N(C)C(=O)[C@H](C2CCCC2)N(C)C(=O)C2(CC(C)(C)C2)NC(=O)[C@@H]2C[C@H](C)CN2C(=O)[C@H](CCc2ccc(C(F)(F)F)c(OC)c2)NC(=O)CN(C)C(=O)[C@H](Cc2ccc(C)cc2)N2CC/C=C\C[C@@H](C2=O)N(C)C(=O)CN(C)C1=O` [PP2413], which “NRAS/KRAS (ratio of KD value with respect to NRAS to KD value with respect to KRAS)” value [1] is on record?
A: A (a compound having 10 or more and less than 20 is denoted as A)

Q: What about the “HRAS/KRAS (ratio of KD value with respect to HRAS to KD value with respect to KRAS)” value [2] of the same molecule?
A: A (a compound having 10 or more and less than 20 is denoted as A)

Q: For `CCO[C@H](C)[C@@H]1NC(=O)[C@H](CC(C)C)N(C)C(=O)C[C@@H](C(=O)N(C)CC)N(C)C(=O)[C@H](C2CCCC2)N(C)C(=O)C2(CC(C)(C)C2)NC(=O)[C@@H]2C[C@H](C)CN2C(=O)[C@H](CCc2cc(F)c(C(F)(F)F)c(F)c2)NC(=O)CN(C)C(=O)[C@H](Cc2ccc(C)cc2)N2CC/C=C\C[C@@H](C2=O)N(C)C(=O)CN(C)C1=O` [PP2414], which “NRAS/KRAS (ratio of KD value with respect to NRAS to KD value with respect to KRAS)” value [1] is on record?
A: A (a compound having 10 or more and less than 20 is denoted as A)

Q: And the “HRAS/KRAS (ratio of KD value with respect to HRAS to KD value with respect to KRAS)” value [2]?
A: A (a compound having 10 or more and less than 20 is denoted as A)

Q: `CCCO[C@H](C)[C@@H]1NC(=O)[C@H](CC(C)C)N(C)C(=O)C[C@@H](C(=O)N(C)C)N(C)C(=O)[C@H](C2CCCC2)N(C)C(=O)C2(CC(C)(C)C2)NC(=O)[C@@H]2C[C@H](C)CN2C(=O)[C@H](CCc2ccc(C(F)(F)F)c(OC)c2)NC(=O)CN(C)C(=O)[C@H](Cc2ccc(C)cc2)N2CC/C=C\C[C@@H](C2=O)N(C)C(=O)CN(C)C1=O` [PP2415] was tested. Which “NRAS/KRAS (ratio of KD value with respect to NRAS to KD value with respect to KRAS)” value [1] did it give?
A: AA (a compound having 20 or more is denoted as AA)

Q: What about the “HRAS/KRAS (ratio of KD value with respect to HRAS to KD value with respect to KRAS)” value [2] of the same molecule?
A: A (a compound having 10 or more and less than 20 is denoted as A)

Q: With `CCCO[C@H](C)[C@@H]1NC(=O)[C@H](CC(C)C)N(C)C(=O)C[C@@H](C(=O)N(C)CC)N(C)C(=O)[C@H](C2CCCC2)N(C)C(=O)C2(CC(C)(C)C2)NC(=O)[C@@H]2C[C@H](C)CN2C(=O)[C@H](CCc2ccc(C(F)(F)F)c(OC)c2)NC(=O)CN(C)C(=O)[C@H](Cc2ccc(C)cc2)N2CC/C=C\C[C@@H](C2=O)N(C)C(=O)CN(C)C1=O` [PP2416] as the molecule, how does the “NRAS/KRAS (ratio of KD value with respect to NRAS to KD value with respect to KRAS)” value [1] read?
A: A (a compound having 10 or more and less than 20 is denoted as A)

Q: What about the “HRAS/KRAS (ratio of KD value with respect to HRAS to KD value with respect to KRAS)” value [2] of the same molecule?
A: B (a compound having 3 or more and less than 10 is denoted as B)

Q: Which results are given for `CCCO[C@H](C)[C@@H]1NC(=O)[C@H](CC(C)C)N(C)C(=O)C[C@@H](C(=O)N(C)CC)N(C)C(=O)[C@H](C2CCCC2)N(C)C(=O)C2(CC(C)(C)C2)NC(=O)[C@@H]2C[C@H](C)CN2C(=O)[C@H](CCc2cc(F)c(C(F)(F)F)c(F)c2)NC(=O)CN(C)C(=O)[C@H](Cc2ccc(C)cc2)N2CC/C=C\C[C@@H](C2=O)N(C)C(=O)CN(C)C1=O` [PP2417]?
A: NRAS/KRAS (ratio of KD value with respect to NRAS to KD value with respect to KRAS) [1]: A (a compound having 10 or more and less than 20 is denoted as A); HRAS/KRAS (ratio of KD value with respect to HRAS to KD value with respect to KRAS) [2]: A (a compound having 10 or more and less than 20 is denoted as A)

Q: `CCO[C@H](C)[C@@H]1NC(=O)[C@H](CC(C)C)N(C)C(=O)C[C@@H](C(=O)N(C)C)N(C)C(=O)[C@H](C2CCCC2)N(C)C(=O)C2(CC(C)(C)C2)NC(=O)[C@@H]2C[C@H](C)CN2C(=O)[C@H](CCc2ccc(C(F)(F)F)c(OC)c2)NC(=O)CN(C)C(=O)[C@H](Cc2ccc(C)cc2)N2CC/C=C\C[C@@H](C2=O)N(C)C(=O)[C@@H]2CCCN2C1=O` [PP2418] was tested. Which “NRAS/KRAS (ratio of KD value with respect to NRAS to KD value with respect to KRAS)” value [1] did it give?
A: A (a compound having 10 or more and less than 20 is denoted as A)

Q: And the “HRAS/KRAS (ratio of KD value with respect to HRAS to KD value with respect to KRAS)” value [2]?
A: B (a compound having 3 or more and less than 10 is denoted as B)

Q: How did the “NRAS/KRAS (ratio of KD value with respect to NRAS to KD value with respect to KRAS)” value [1] turn out when `CCO[C@H](C)[C@@H]1NC(=O)[C@H](CC(C)C)N(C)C(=O)C[C@@H](C(=O)N(C)CC)N(C)C(=O)[C@H](C2CCCC2)N(C)C(=O)C2(CC(C)(C)C2)NC(=O)[C@@H]2C[C@H](C)CN2C(=O)[C@H](CCc2ccc(C(F)(F)F)c(OC)c2)NC(=O)CN(C)C(=O)[C@H](Cc2ccc(C)cc2)N2CC/C=C\C[C@@H](C2=O)N(C)C(=O)[C@@H]2CCCN2C1=O` [PP2419] was run?
A: A (a compound having 10 or more and less than 20 is denoted as A)

Q: And the “HRAS/KRAS (ratio of KD value with respect to HRAS to KD value with respect to KRAS)” value [2]?
A: A (a compound having 10 or more and less than 20 is denoted as A)

Q: For `CCOC[C@H]1C(=O)N[C@@H]([C@@H](C)OCC)C(=O)N(C)CC(=O)N(C)[C@H]2C/C=C\CCN(C2=O)[C@@H](Cc2ccc(C)cc2)C(=O)N(C)CC(=O)N[C@@H](CCc2cc(F)c(C(F)(F)F)c(F)c2)C(=O)N2C[C@@H](C)C[C@H]2C(=O)NC2(CC(C)(C)C2)C(=O)N(C)[C@@H](C2CCCC2)C(=O)N(C)[C@H](C(=O)N(C)CC)CC(=O)N1C` [PP2422], which “NRAS/KRAS (ratio of KD value with respect to NRAS to KD value with respect to KRAS)” value [1] is on record?
A: A (a compound having 10 or more and less than 20 is denoted as A)

Q: What about the “HRAS/KRAS (ratio of KD value with respect to HRAS to KD value with respect to KRAS)” value [2] of the same molecule?
A: A (a compound having 10 or more and less than 20 is denoted as A)

Q: What does the source list for `CCCOC[C@H]1C(=O)N[C@@H]([C@@H](C)OCC)C(=O)N(C)CC(=O)N(C)[C@H]2C/C=C\CCN(C2=O)[C@@H](Cc2ccc(C)cc2)C(=O)N(C)CC(=O)N[C@@H](CCc2ccc(C(F)(F)F)c(OC)c2)C(=O)N2C[C@@H](C)C[C@H]2C(=O)NC2(CC(C)(C)C2)C(=O)N(C)[C@@H](C2CCCC2)C(=O)N(C)[C@H](C(=O)N(C)CC)CC(=O)N1C` [PP2423]?
A: NRAS/KRAS (ratio of KD value with respect to NRAS to KD value with respect to KRAS) [1]: A (a compound having 10 or more and less than 20 is denoted as A); HRAS/KRAS (ratio of KD value with respect to HRAS to KD value with respect to KRAS) [2]: A (a compound having 10 or more and less than 20 is denoted as A)
